Measurements taken from US20190359645A1, “2'3'-CYCLIC DINUCLEOTIDES COMPRISING CARBOCYCLIC NUCLEOTIDE” (Institute of Organic Chemistry and Biochemistry ASCR, V.V.I., priority 2018, published 2019).

Target: WT STING (Homo sapiens, UniProt Q86WV6, H232R)
Test: Digitonin assay using 293T wtSTING-FL reporter cells
Assay type: cell-based
Set-up: host or cells: 293T (ATCC CRL-3216), stably transfected; also carries the 4xISRE firefly luciferase reporter
Conditions: 293T wtSTING-FL cells, digitonin buffer 30 min, then 5 h, ISRE firefly luciferase reporter; read-out: Digitonin assay EC50 WT STING
Source text: Two complementary oligonucleotides of the sequence […] […] […] […] (SEQ ID NO: 1) and […] […] (SEQ ID NO:2) containing four interferon-sensitive response elements (ISRE) were synthesized by Sigma Aldrich (Czech Republic, Prague). The oligonucleotides were mixed in equal molar amounts, hybridized, and cleaved by restriction endonucleases HindIII (cat. #. R^0104S, NEB, Ipswich, USA) and BglII (cat. # R^0144S, NEB, Ipswich, USA). Ultimately, they were ligated into plasmid pGL4.27 (cat. # E6651, Promega, Madison, USA) linearized with the same enzymes. As a result, the sequence with four ISRE sites was placed upstream of the minimum promoter of firefly luciferase reporter gene.
293T cells (cat. # CRL-3216, ATCC, Manassas, USA) were seeded a day before transfection at density 125,000 cells per cm^2 onto poly-D-lysine (cat. # P6407, Sigma Aldrich, Czech Republic) coated six well plates in antibiotic free DMEM with high glucose (cat. # D5796, Sigma Aldrich, Czech Republic) supplemented with 10% heat inactivated FBS (cat. # S1520, Biowest, Riverside, USA). On the day of transfection, 2.5 μg of the plasmid pUNO1-hSTING-WT (cat. # punol-hstingwt, InvivoGen, San Diego, USA,) encoding human wild type STING (WT STING) was diluted in 125 μL OptiMEM medium (cat. #31985062, ThermoFisher, Waltham, USA) and mixed with 125 μL of the same medium containing 12.5 μL of Lipofectamine 2000 (cat. #11668019, ThermoFisher, Waltham, USA). After 5 minutes incubation at room temperature (RT), 250 μL of the mixture was added dropwise to the cells in one well. Cells were incubated 36 hours at 37° C. with 5% CO2, and then detached with 0.05% Trypsin and 0.22 g/L EDTA (both cat. # L0941, Biowest, Riverside, USA).
Transfected cells were seeded onto poly-D-lysine coated six well plates at density 50,000 cells per 1 cm^2 in DMEM medium with high glucose containing 10% heat inactivated FBS, […] blasticidin (cat. # ant-bl-05, InvivoGen, San Diego, USA), 0.06 mg/ml Penicillin G and 0.1 mg/ml Streptomycin Sulfate (both cat. #. L0018, Biowest, Riverside, USA). The medium was replenished every 3-4 days until visible colonies of cells resistant to blasticidin were formed.
Blasticidin resistant cells stably expressing WT STING were further transfected with […] plasmid following the same procedure as described above. The transfected cells were selected for the resistance to 300 μg/mL hygromycin (cat. #. 10687010, ThermoFisher, Waltham, USA) in DMEM with high glucose containing 10% heat inactivated FBS, […] blasticidin, 0.06 mg/ml Penicillin G and 0.1 mg/ml Streptomycin Sulfate. Homogeneous culture of stably double transfected cells was prepared by limiting dilution of cells in 96 well plates and wells with cells were selected that originated from a single cell. These cells were expanded, and expression of WT STING was confirmed by western blot using monoclonal mouse anti STING antibodies (cat. #. MAB7169, 1:1000 dilution; […] cat. #. HAF007, 1:2000 dilution, both from R&D Systems, Minneapolis, USA), and by induction of firefly luciferase expression in the presence of 50 μM STING agonist 2′3′ cGAMP (cat. # tlrl-nacga23, InvivoGen, San Diego, USA). Genomic DNA from the transfected cells was amplified with primers pUNO1_Seq_F ([…]) (SEQ ID NO:3) and pUNO1_Seq_R ([…]) (SEQ ID NO:4) that were complementary to pUNO1 plasmid and the presence of WT STING gene in the transfected cells was confirmed by DNA sequencing.
293T wtSTING-FL cells were seeded at density of 250,000 cells per cm^2 onto 96 well poly-D-lysine coated plates in 100 μl DMEM with high glucose supplemented with 10% heat inactivated FBS. […]

Sequence of WT STING (Q86WV6 whole entry H232R): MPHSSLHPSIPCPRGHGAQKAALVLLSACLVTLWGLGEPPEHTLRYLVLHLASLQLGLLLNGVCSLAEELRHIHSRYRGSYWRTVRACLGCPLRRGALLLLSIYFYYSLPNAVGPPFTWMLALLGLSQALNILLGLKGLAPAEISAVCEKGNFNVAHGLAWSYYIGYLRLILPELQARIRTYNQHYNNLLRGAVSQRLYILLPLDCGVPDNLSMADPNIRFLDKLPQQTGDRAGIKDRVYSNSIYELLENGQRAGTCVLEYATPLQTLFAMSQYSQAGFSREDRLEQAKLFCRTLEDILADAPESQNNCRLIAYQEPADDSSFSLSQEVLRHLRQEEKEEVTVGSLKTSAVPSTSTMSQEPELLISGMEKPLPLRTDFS

SMILES | EC50
Nc1nc2c(ncn2[C@@H]2C[C@@H]3COP(=O)(O)OC4C(O)[C@H](n5cnc6c(N)nc(F)nc65)O[C@@H]4COP(=O)(O)OC2C3O)c(=O)[nH]1 (stereo partly drawn) [Compound 103, (6R,8R,15R,17R)-8-(6-amino-2-fluoro-9H-purin-9-yl)-17-(2-amino-6-oxo-6,9-dihydro-1H-purin-9-yl)-3,9,12,18-tetrahydroxy-2,4,7,11,13-pentaoxa-3λ^5,12λ^5-diphosphatricyclo[13.2.1.0^6,10]octadecane-3,12-dione] | 1500 nM
CSc1nc(N)nc2c1ncn2[C@@H]1O[C@@H]2COP(=O)(O)OC3C(O)[C@@H](COP(=O)(O)OC2C1O)C[C@H]3n1cnc2c(=O)[nH]c(N)nc21 (stereo partly drawn) [Compound 112, (6R,8R,15R,17R)-8-[2-amino-6-(methylsulfanyl)-9H-purin-9-yl]-17-(2-amino-6-oxo-6,9-dihydro-1H-purin-9-yl)-3,9,12,18-tetrahydroxy-2,4,7,11,13-pentaoxa-3λ^5,12λ^5-diphosphatricyclo[13.2.1.0^6,10]octadecane-3,12-dione] | 15100 nM
Nc1nc2c(ncn2[C@@H]2C[C@@H]3COP(=O)(O)OC4C(O)[C@H](n5cnc6c(N)ncnc65)O[C@@H]4COP(=O)(O)OC2C3O)c(=O)[nH]1 (stereo partly drawn) [Compound 102, (6R,8R,15R,17R)-17-(2-amino-6-oxo-6,9-dihydro-1H-purin-9-yl)-8-(6-amino-9H-purin-9-yl)-3,9,12,18-tetrahydroxy-2,4,7,11,13-pentaoxa-3λ^5,12λ^5-diphosphatricyclo[13.2.1.0^6,10]octadecane-3,12-dione] | 100 nM
Nc1nc2c(ncn2[C@@H]2C[C@@H]3COP(=O)(O)OC4C(O)[C@H](n5cnc6c(Cl)ncnc65)O[C@@H]4COP(=O)(O)OC2C3O)c(=O)[nH]1 (stereo partly drawn) [Compound 115, (6R,8R,15R,17R)-17-(2-amino-6-oxo-6,9-dihydro-1H-purin-9-yl)-8-(6-chloro-9H-purin-9-yl)-3,9,12,18-tetrahydroxy-2,4,7,11,13-pentaoxa-3λ^5,12λ^5-diphosphatricyclo[13.2.1.0^6,10]octadecane-3,12-dione] | 70 nM
CSc1ncnc2c1ncn2[C@@H]1O[C@@H]2COP(=O)(O)OC3C(O)[C@@H](COP(=O)(O)OC2C1O)C[C@H]3n1cnc2c(=O)[nH]c(N)nc21 (stereo partly drawn) [Compound 110, (6R,8R,15R,17R)-17-(2-amino-6-oxo-6,9-dihydro-1H-purin-9-yl)-3,9,12,18-tetrahydroxy-8-[6-(methylsulfanyl)-9H-purin-9-yl]-2,4,7,11,13-pentaoxa-3λ^5,12λ^5-diphosphatricyclo[13.2.1.0^6,10]octadecane-3,12-dione] | 230 nM
Nc1ncnc2c1ncn2[C@@H]1O[C@@H]2COP(=O)(O)OC3C(O)[C@@H](COP(=O)(O)OC2C1O)C[C@H]3n1cnc2c(=O)[nH]cnc21 (stereo partly drawn) [Compound 120, (6R,8R,15R,17R)-8-(6-amino-9H-purin-9-yl)-3,9,12,18-tetrahydroxy-17-(6-oxo-6,9-dihydro-1H-purin-9-yl)-2,4,7,11,13-pentaoxa-3λ^5,12λ^5-diphosphatricyclo[13.2.1.0^6,10]octadecane-3,12-dione] | 30 nM
Nc1nc2c(ncn2[C@@H]2C[C@@H]3COP(=O)(S)OC4C(O)[C@H](n5cnc6c(N)ncnc65)O[C@@H]4COP(=O)(O)OC2C3O)c(=O)[nH]1 (stereo partly drawn) [Compound 118, (6R,8R,15R,17R)-17-(2-amino-6-oxo-6,9-dihydro-1H-purin-9-yl)-8-(6-amino-9H-purin-9-yl)-3,9,18-trihydroxy-12-sulfanyl-2,4,7,11,13-pentaoxa-3λ^5,12λ^5-diphosphatricyclo[13.2.1.0^6,10]octadecane-3,12-dione] | 130 nM
Cc1cn([C@@H]2O[C@@H]3COP(=O)(O)OC4C(O)[C@@H](COP(=O)(O)OC3C2O)C[C@H]4n2cnc3c(=O)[nH]c(N)nc32)c2ncnc(N)c12 (stereo partly drawn) [Compound 113, (6R,8R,15R,17R)-8-{4-amino-5-methyl-7H-pyrrolo[2,3-d]pyrimidin-7-yl}-17-(2-amino-6-oxo-6,9-dihydro-1H-purin-9-yl)-3,9,12,18-tetrahydroxy-2,4,7,11,13-pentaoxa-3λ^5,12λ^5-diphosphatricyclo[13.2.1.0^6,10]octadecane-3,12-dione] | 120 nM
Nc1nc2c(ncn2[C@@H]2C[C@@H]3COP(=O)(O)OC4C(O)[C@H](n5cnc6c(S)ncnc65)O[C@@H]4COP(=O)(O)OC2C3O)c(=O)[nH]1 (stereo partly drawn) [Compound 107, (6R,8R,15R,17R)-17-(2-amino-6-oxo-6,9-dihydro-1H-purin-9-yl)-3,9,12,18-tetrahydroxy-8-(6-sulfanyl-9H-purin-9-yl)-2,4,7,11,13-pentaoxa-3λ^5,12λ^5-diphosphatricyclo[13.2.1.0^6,10]octadecane-3,12-dione] | 6400 nM

Further lines, results first:

EC50 | SMILES
140 nM | Nc1ncnc2c1ccn2[C@@H]1O[C@@H]2COP(=O)(O)OC3C(O)[C@@H](COP(=O)(O)OC2C1O)C[C@H]3n1cnc2c(=O)[nH]cnc21 (stereo partly drawn) [Compound 122, (6R,8R,15R,17R)-8-{4-amino-7H-pyrrolo[2,3-d]pyrimidin-7-yl}-3,9,12,18-tetrahydroxy-17-(6-oxo-6,9-dihydro-1H-purin-9-yl)-2,4,7,11,13-pentaoxa-3λ^5,12λ^5-diphosphatricyclo[13.2.1.0^6,10]octadecane-3,12-dione]
60 nM | Nc1ncnc2c1ncn2[C@@H]1O[C@@H]2COP(=O)(S)O[C@@H]3[C@H](F)[C@@H](COP(=O)(S)O[C@H]2[C@H]1F)C[C@H]3n1cnc2c(=O)[nH]cnc21 (single isomer, unassigned) [Compound 128c]
50 nM | Nc1ncnc2c1ncn2[C@@H]1O[C@@H]2COP(=O)(O)O[C@@H]3[C@@H](F)[C@@H](COP(=O)(O)O[C@H]2[C@H]1O)C[C@H]3n1cnc2c(=O)[nH]cnc21 [Compound 126, (1S,6R,8R,9R,10S,15R,17R,18S)-8-(6-amino-9H-purin-9-yl)-18-fluoro-3,9,12-trihydroxy-17-(6-oxo-6,9-dihydro-1H-purin-9-yl)-2,4,7,11,13-pentaoxa-3λ^5,12λ^5-diphosphatricyclo[13.2.1.0^6,10]octadecane-3,12-dione]
300 nM | Cc1cn([C@@H]2O[C@@H]3COP(=O)(O)OC4C(O)[C@@H](COP(=O)(O)OC3C2O)C[C@H]4n2cnc3c(=O)[nH]cnc32)c2ncnc(N)c12 (stereo partly drawn) [Compound 123, (6R,8R,15R,17R)-8-{4-amino-5-methyl-7H-pyrrolo[2,3-d]pyrimidin-7-yl}-3,9,12,18-tetrahydroxy-17-(6-oxo-6,9-dihydro-1H-purin-9-yl)-2,4,7,11,13-pentaoxa-3λ^5,12λ^5-diphosphatricyclo[13.2.1.0^6,10]octadecane-3,12-dione]
500 nM | Nc1ncnc2c1ncn2[C@@H]1O[C@@H]2COP(=O)(O)OC3C(O)[C@@H](COP(=O)(O)OC2C1O)C[C@H]3n1cnc2c(=O)[nH]cnc21 (stereo partly drawn) [Compound 121, (6R,8R,15R,17R)-8-(6-amino-9H-purin-9-yl)-3,9,12,18-tetrahydroxy-17-(6-oxo-6,9-dihydro-1H-purin-9-yl)-2,4,7,11,13-pentaoxa-3λ^5,12λ^5-diphosphatricyclo[13.2.1.0^6,10]octadecane-3,12-dione]
